# Article PMC9481563, “Structural insights into the pSer/pThr dependent regulation of the SHP2 tyrosine phosphatase in insulin and CD28 signaling” (Nature Communications, 2022)
# Where a chain is given by its changes, count along the chain named.
# What was measured:
# [1] = biological target: T1, inactive SHP2 catalytic domain Flapmut (H426F) (Homo sapiens, UniProt Q06124, C459S/H426F); test: Fluorescence polarization titrations, SHP2 Flapmut; assay type: binding; conditions: competitive FP titration vs CF-ppIRS1 100 nM, protein fixed; n = 3 technical replicates
# T1 construct: SHP2 H425F (Flapmut); 219-528 + C459S; His6 (N); made in house; host or cells: E. coli BL21 (DE3)
# T1 sequence (Q06124 219-528 H426F/C459S): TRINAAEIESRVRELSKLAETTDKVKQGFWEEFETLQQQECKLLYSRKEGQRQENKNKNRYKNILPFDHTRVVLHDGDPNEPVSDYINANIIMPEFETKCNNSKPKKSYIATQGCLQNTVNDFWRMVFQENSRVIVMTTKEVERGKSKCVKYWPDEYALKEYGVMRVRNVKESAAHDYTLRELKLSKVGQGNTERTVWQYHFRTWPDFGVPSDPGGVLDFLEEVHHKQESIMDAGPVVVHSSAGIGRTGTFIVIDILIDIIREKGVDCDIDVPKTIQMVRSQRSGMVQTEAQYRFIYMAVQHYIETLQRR
# Excerpt: (§1) The two SH2 domains of PI3KR1 (UniProt P27986; nSH2: 321−433 cSH2: 614–724) were cloned from HEK293T cDNA pool, and subsequently ligated into a modified pET vector encoding maltose binding protein (MBP) tag on the N-terminal and a hexa-His tag on the C-terminal end of the construct. Similarly, the catalytic, tyrosine phosphatase domains of PTPRε (P23469 first domain: 107–399) and PTP1B (P18031; 1–229) were cloned from a HEK293T cDNA pool, and inserted into a pBH4 vector encoding an N-terminal His6 tag (for the final binding experiments, an MBP-tagged version of PTPRε was employed). […] Surface mutants of SHP2 were constructed from the SHP2-C459S plasmid, using the QuickChange protocol. The D425A and H426A catalytic site mutants and all enzymatically active surface mutants were generated similarly, but from the plasmid encoding the wild-type catalytic domain of SHP2. Wild-type C-terminal FLAG-tagged human IRS1 was cloned between HindIII-NotI sites of pcDNA3.1(+) vector (#V79020 Invitrogen, Waltham MA USA). Ser/Ala mutant IRS1 was generated by replacing the region of S616/S636/S666/S736 positions with a cassette carrying S616A/S636A/S666A/S736A mutations. All constructs were validated by complete Sanger sequencing before protein expression and purification. The oligonucleotide sequences used are shown on Supplementary table 4.
# (§2) Fluorescence polarization (FP) assays were performed as follows: In direct titration experiments, protein concentration was varied in an 1/2 or 2/3 dilution series (90 µl protein+ 45 µl mix), while concentration of the reporter peptide (CF-ppIRS1) was kept constant at 100 nM. In competitive titrations, the labelled CF-ppIRS1 peptide and protein were both fixed (at 50–80% saturation) and the unlabelled competitor peptide concentration was varied. Fluorescence polarization was always measured in triplicates, on black Corning low volume round bottom 384-well plates (with 10 ul volumes), using a BioTek Cytatation 5 reader, with the green fluorescent protein (GFP) cube filter set (ex: 485/20, em: 528/20, gain: 50, height: 7.5). Fluorescence polarization data was evaluated on Origin 2018. The dissociation constants (Kd) were determined by using the appropriate quadratic and cubic equations inserted as a user-defined function and applying nonlinear fit until convergence. The fitting formulae are shown at Supplementary note 1. Kd ratio distributions for Fig. 6 were calculated using a Monte-Carlo approach (Supplementary note 2).
# (§3) Supplementary note 1. Curve fitting of fluorescence polarization (FP) measurements.
# (§4) To evaluate polarization values from direct and competitive titrations, we used the following fitting formulae in Origin 2018, as detailed below.
# (§5) Direct titration curves were fitted according to the following formula: […]
# (§6) Where Imin is the minimal anisotropy, Imax is the (asymptotically estimated) maximal intensity. K0 is the starting concentration of the protein, while T0 is the (fixed) concentration of the labelled peptide and Kd is the dissociation constant.
# (§7) Competitive titration curves were fitted with a different formula (In addition to those defined above, constants KdT KdB B0 T0 and D0 here refer to the Kd derived from the direct titration, the unknown Kd of the analyte, the labelled peptide concentration, the competitor peptide concentration as well as the protein concentration, respectively).
# (§8) The ± sign refers to two different scenarios, depending on the sign of discriminant (KdT > KdB or […]). For unknown analytes, the choice of sign is not arbitrary, as the fitting will not converge unless the appropriate formula is chosen: […]
# (§9) Where A, B and C correspond to the following expressions: […]
# [2] = biological target: T2, inactive SHP2 catalytic domain Pocketless (K260E+R265S) (Homo sapiens, UniProt Q06124, C459S/K260E/R265S); test: Fluorescence polarization titrations, SHP2 Pocketless; assay type: binding; conditions: competitive FP titration vs CF-ppIRS1 100 nM, protein fixed; n = 3 technical replicates
# T2 construct: SHP2 K260E+R265S (Pocketless); 219-528 + C459S; His6 (N); made in house; host or cells: E. coli BL21 (DE3)
# T2 sequence (Q06124 219-528 K260E/R265S/C459S): T1 sequence (Q06124 219-528 H426F/C459S) with K42E, R47S, F208H
# Excerpt: as §1, §2, §3, §4, §5, §6, §7, §8, §9
compound,measurement,setting,value
CSCC[C@H](NC(=O)[C@H](Cc1ccc(OP(=O)(O)O)cc1)NC(=O)[C@H](CC(=O)O)NC(=O)[C@H](CO)NC(=O)[C@H](Cc1c[nH]cn1)NC(=O)[C@H](CC(C)C)NC(=O)[C@H](CC(C)C)NC(=O)[C@H](CCCNC(=N)N)NC(=O)[C@H](CO)NC(=O)[C@@H](N)CCCNC(=N)N)C(=O)N[C@@H](CC(N)=O)C(=O)N[C@@H](CCSC)C(=O)N[C@H](C(=O)N1CCC[C@H]1C(=O)N[C@@H](CCCNC(=N)N)C(=O)N[C@@H](CCCNC(=N)N)C(=O)O)[C@@H](C)O [p0CD28],Kd,[1],63.7 ± 3.1 µM
same,Kd,[2],34.8 ± 2.25 µM
CSCC[C@H](NC(=O)[C@@H]1CCCN1C(=O)[C@H](CCSC)NC(=O)[C@H](Cc1ccc(OP(=O)(O)O)cc1)NC(=O)[C@H](CC(=O)O)NC(=O)CNC(=O)[C@H](CO)NC(=O)CNC(=O)[C@H](CCCCN)NC(=O)[C@H](CCCNC(=N)N)NC(=O)CN)C(=O)N[C@@H](CO)C(=O)N1CCC[C@H]1C(=O)N[C@@H](CCCCN)C(=O)N[C@@H](CO)C(=O)O [p0IRS1],Kd,[1],172 ± 4.89 µM
same,Kd,[2],191 ± 15.5 µM
CC[C@H](C)[C@H](NC(=O)[C@H](CC(N)=O)NC(=O)[C@@H](NC(=O)[C@H](Cc1ccc(OP(=O)(O)O)cc1)NC(=O)[C@H](CCC(=O)O)NC(=O)CNC(=O)[C@@H]1CCCN1C(=O)[C@H](CO)NC(=O)[C@H](CCCCN)NC(=O)[C@@H]1CCCN1C(=O)[C@@H](N)CCC(=O)O)C(C)C)C(=O)N[C@@H](CCC(=O)O)C(=O)N[C@@H](Cc1ccccc1)C(=O)O [p0SRev-IRS1],Kd,[1],6.05 ± 0.29 µM
same,Kd,[2],17.7 ± 2.13 µM
CSCC[C@H](NC(=O)[C@H](Cc1ccc(OP(=O)(O)O)cc1)NC(=O)[C@H](CC(=O)O)NC(=O)[C@H](CO)NC(=O)[C@H](Cc1c[nH]cn1)NC(=O)[C@H](CC(C)C)NC(=O)[C@H](CC(C)C)NC(=O)[C@H](CCCNC(=N)N)NC(=O)[C@H](CO)NC(=O)[C@@H](N)CCCNC(=N)N)C(=O)N[C@@H](CC(N)=O)C(=O)N[C@@H](CCSC)C(=O)N[C@H](C(=O)N1CCC[C@H]1C(=O)N[C@@H](CCCNC(=N)N)C(=O)N[C@@H](CCCNC(=N)N)C(=O)O)[C@@H](C)OP(=O)(O)O [ppCD28],Kd,[1],9.96 ± 0.47 µM
same,Kd,[2],5.63 ± 0.29 µM
CSCC[C@H](NC(=O)[C@@H]1CCCN1C(=O)[C@H](CCSC)NC(=O)[C@H](Cc1ccc(OP(=O)(O)O)cc1)NC(=O)[C@H](CC(=O)O)NC(=O)CNC(=O)[C@H](CO)NC(=O)CNC(=O)[C@H](CCCCN)NC(=O)[C@H](CCCNC(=N)N)NC(=O)CN)C(=O)N[C@@H](COP(=O)(O)O)C(=O)N1CCC[C@H]1C(=O)N[C@@H](CCCCN)C(=O)N[C@@H](CO)C(=O)O [ppIRS1],Kd,[1],3.89 ± 0.19 µM
same,Kd,[2],6.36 ± 0.28 µM
CC[C@H](C)[C@H](NC(=O)[C@H](CC(N)=O)NC(=O)[C@@H](NC(=O)[C@H](Cc1ccc(OP(=O)(O)O)cc1)NC(=O)[C@H](CCC(=O)O)NC(=O)CNC(=O)[C@@H]1CCCN1C(=O)[C@H](COP(=O)(O)O)NC(=O)[C@H](CCCCN)NC(=O)[C@@H]1CCCN1C(=O)[C@@H](N)CCC(=O)O)C(C)C)C(=O)N[C@@H](CCC(=O)O)C(=O)N[C@@H](Cc1ccccc1)C(=O)O [ppSRev-IRS1],Kd,[1],0.54 ± 0.03 µM
same,Kd,[2],1.91 ± 0.2 µM
